Measurements: patent US20240059691A1 (KALVISTA PHARMACEUTICALS LIMITED, priority 2020, published 2024)
pIC50: −log10 of the molar value. Where two headings read alike, the source gives them in different places. Each block holds one molecule with its values, some of them ahead of it.

Tests used:
FXa = FXa (Homo sapiens (Human), UniProt P00742); assay: Determination of related protease inhibition: FXa (fluorogenic substrate at Km); type: biochemical; settings: 25° C.
Method in brief: (§1)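 Fluorescence release from a Km-level fluorogenic substrate, read for 5 min at 25 °C, gave the linear rate per minute for each inhibitor concentration. Rates were converted to % of uninhibited human enzyme activity; IC50 = inhibitor concentration producing 50% inhibition.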

Human Factor XIIa = Human Factor XIIa (Homo sapiens (Human), UniProt P00748); assay: Determination of FXIIa inhibition (fluorogenic substrate H-DPro-Phe-Arg-AFC, IC50 assay); type: biochemical; settings: substrate H-DPro-Phe-Arg-AFC at Km, 25° C.; class scale A-G
Chain of Human Factor XIIa (P00748 373-615): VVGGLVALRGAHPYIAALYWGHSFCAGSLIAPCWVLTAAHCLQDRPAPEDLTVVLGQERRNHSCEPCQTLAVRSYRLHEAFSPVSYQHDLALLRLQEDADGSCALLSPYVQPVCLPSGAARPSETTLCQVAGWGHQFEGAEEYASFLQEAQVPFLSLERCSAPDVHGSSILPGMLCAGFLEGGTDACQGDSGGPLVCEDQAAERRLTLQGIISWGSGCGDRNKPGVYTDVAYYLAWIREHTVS
Method in brief: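 IC50 derived from % remaining activity, taken as the linear fluorescence rate over a 5 min read at 25° C. Substrate H-DPro-Phe-Arg-AFC was used at its Km (Michaelis-Menten) with human FXIIa and serial compound dilutions, 25° C.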

[1] = Pharmacokinetics following a single intravenous dose and a single oral dose in male Sprague-Dawley rats (oral bioavailability, half-life); type: in vivo; settings: rat, plasma, 10% DMSO/10% Cremophor EL/80% SWFI; for bioavailability: read-out: F % (oral bioavailability)
Description: Pharmacokinetic studies of the compounds in Table 16 were performed to assess the pharmacokinetics following a single intravenous dose and a single oral dose in male Sprague-Dawley rats. Two rats were given a single intravenous dose of 1 mL/kg of a nominal 1 mg/mL (1 mg/kg) composition of test compound in 10% DMSO/10% Cremophor EL/80% SWFI vehicle. Example 2191 was dosed at 1 mL/kg of a nominal 2 mg/mL (2 mg/kg) using the same vehicle.
Two rats were given a single oral dose of 5 mL/kg of a nominal 1 mg/mL (5 mg/kg) composition of test compound in 10% DMSO/10% Cremophor EL/80% SWFI vehicle. Example 2191 was dosed at 5 mL/kg of a nominal 2 mg/mL (10 mg/kg) using the same vehicle.
Following intravenous dosing, blood samples were collected over a period of 12 h. Sample times were 2, 5, 15 and 30 min then 1, 2, 4, 6, and 12 h. Following oral dosing, blood samples were collected over a period of 24 h. Sample times were 5, 15 and 30 min then 1, 2, 4, 6, 8, 12 and 24 h.
Following collection, blood samples were centrifuged and the plasma fraction analysed for concentration of test compound by LCMS. Oral bioavailability and half-life calculations from these studies were obtained using Phoenix WinNonlin (v8.0) and are shown below: […]

Plasma Kallikrein = Plasma Kallikrein (Homo sapiens (Human), UniProt P03952); assay: Determination of related protease inhibition: Plasma Kallikrein (fluorogenic substrate at Km); type: biochemical; settings: 25° C., read-out: IC50 (human PKal)
Chain of Plasma Kallikrein (P03952 391-638): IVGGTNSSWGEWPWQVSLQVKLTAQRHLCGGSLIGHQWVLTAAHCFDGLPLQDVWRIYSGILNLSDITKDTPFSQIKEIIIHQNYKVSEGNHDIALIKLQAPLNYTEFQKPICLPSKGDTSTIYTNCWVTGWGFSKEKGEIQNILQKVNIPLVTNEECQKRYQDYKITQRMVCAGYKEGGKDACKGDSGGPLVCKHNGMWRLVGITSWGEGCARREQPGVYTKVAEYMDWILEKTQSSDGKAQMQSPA
Chain of Plasma Kallikrein (P03952 20-390 partner): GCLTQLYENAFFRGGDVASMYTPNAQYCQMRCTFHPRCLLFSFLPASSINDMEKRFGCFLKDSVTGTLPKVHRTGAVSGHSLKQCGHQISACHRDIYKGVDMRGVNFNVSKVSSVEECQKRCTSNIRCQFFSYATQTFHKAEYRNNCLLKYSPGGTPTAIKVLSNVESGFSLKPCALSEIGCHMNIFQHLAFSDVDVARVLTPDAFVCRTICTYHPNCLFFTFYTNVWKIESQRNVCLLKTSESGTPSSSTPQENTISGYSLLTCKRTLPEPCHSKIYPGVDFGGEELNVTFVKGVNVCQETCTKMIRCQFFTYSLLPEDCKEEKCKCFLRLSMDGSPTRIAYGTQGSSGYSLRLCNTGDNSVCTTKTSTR
Method in brief: as §1

KLK1 = KLK1 (Homo sapiens (Human), UniProt P06870); assay: Determination of related protease inhibition: KLK1 (fluorogenic substrate at Km); type: biochemical; settings: 25° C.
Chain of KLK1 (P06870 25-262): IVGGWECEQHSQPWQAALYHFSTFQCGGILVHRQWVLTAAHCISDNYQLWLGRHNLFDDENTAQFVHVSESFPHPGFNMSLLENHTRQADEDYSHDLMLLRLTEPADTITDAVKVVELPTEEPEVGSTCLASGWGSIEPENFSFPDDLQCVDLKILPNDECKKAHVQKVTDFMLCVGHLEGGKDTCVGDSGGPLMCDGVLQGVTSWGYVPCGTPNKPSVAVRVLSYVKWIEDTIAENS
Method in brief: as §1

Thrombin = Thrombin (Homo sapiens (Human), UniProt P00734); assay: Determination of related protease inhibition: Thrombin (fluorogenic substrate at Km); type: biochemical; settings: 25° C.
Method in brief: as §1

Plasmin = Plasmin (Homo sapiens (Human), UniProt P00747); assay: Determination of related protease inhibition: Plasmin (fluorogenic substrate at Km); type: biochemical; settings: 25° C.
Chain of Plasmin (P00747 581-810): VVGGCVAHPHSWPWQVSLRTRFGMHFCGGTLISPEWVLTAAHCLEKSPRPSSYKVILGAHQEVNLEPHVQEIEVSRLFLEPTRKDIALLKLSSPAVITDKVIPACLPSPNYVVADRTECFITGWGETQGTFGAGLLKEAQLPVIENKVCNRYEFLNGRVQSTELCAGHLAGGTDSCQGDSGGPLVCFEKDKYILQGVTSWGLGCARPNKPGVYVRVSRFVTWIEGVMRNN
Chain of Plasmin (P00747 97-580 partner): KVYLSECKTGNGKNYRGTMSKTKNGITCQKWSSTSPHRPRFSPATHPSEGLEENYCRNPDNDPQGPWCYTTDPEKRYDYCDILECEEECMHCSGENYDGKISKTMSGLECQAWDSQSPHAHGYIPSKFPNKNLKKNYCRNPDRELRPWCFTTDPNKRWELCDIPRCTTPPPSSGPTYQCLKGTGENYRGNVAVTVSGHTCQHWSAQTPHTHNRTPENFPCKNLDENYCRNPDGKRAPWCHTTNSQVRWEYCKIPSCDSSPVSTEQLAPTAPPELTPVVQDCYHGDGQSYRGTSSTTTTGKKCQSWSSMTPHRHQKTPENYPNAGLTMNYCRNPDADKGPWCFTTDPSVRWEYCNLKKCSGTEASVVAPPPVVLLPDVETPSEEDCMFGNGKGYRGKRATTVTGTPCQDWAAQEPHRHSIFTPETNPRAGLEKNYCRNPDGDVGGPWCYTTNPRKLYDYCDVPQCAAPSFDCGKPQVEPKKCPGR
Description: (§2) Determination of Related Protease Inhibition
(§3) In vitro inhibition of related proteases was determined using an ([…] assay based on standard literature methods (see e.g. Shori et al., Biochem. Pharmacol., 1992, 43, 1209; Bouckaert et al., European Journal of Medicinal Chemistry 110 (2016) 181). Human serine protease enzymes Plasma Kallikrein, KLK1, FXa, Plasmin, Thrombin and Trypsin were assayed for enzymatic activity using an appropriate fluorogenic substrate at Km concentration, FXIa at fixed substrate concentration of 100 μM, and various concentrations of the test compound. Protease activity was measured by monitoring the accumulation of liberated fluorescence from the substrate over […]. The linear rate of fluorescence increase per minute was expressed as percentage (%) activity. IC50 values were calculated as the concentration of inhibitor giving 50% inhibition of the uninhibited enzyme activity (100%).

Trypsin = assay: Determination of related protease inhibition: Trypsin (fluorogenic substrate at Km); type: biochemical, human; settings: 25° C.
Description: as §2, §3

FXIa = FXIa (Homo sapiens (Human), UniProt P03951); assay: Determination of related protease inhibition: FXIa (fixed substrate concentration of 100 μM); type: biochemical; settings: 25° C.
Chain of FXIa (P03951 388-625): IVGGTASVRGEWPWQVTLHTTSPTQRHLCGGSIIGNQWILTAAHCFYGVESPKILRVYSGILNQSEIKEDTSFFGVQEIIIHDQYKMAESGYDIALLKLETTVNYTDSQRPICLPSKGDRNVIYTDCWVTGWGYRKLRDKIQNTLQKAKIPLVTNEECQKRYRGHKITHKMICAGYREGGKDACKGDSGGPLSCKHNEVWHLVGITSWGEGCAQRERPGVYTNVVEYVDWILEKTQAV
Chain of FXIa (P03951 19-387 partner): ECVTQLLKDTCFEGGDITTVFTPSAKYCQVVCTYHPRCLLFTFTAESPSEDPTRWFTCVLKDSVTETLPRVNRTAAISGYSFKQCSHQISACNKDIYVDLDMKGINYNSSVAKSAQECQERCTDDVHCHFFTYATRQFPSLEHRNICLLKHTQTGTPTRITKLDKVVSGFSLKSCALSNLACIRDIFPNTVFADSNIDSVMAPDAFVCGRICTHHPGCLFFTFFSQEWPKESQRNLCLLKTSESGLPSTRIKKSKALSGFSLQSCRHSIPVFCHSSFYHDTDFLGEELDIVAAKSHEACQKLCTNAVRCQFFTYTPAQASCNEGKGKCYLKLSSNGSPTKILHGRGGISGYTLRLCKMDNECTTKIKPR
Description: as §2, §3

Chain of FXa (P00742 235-488): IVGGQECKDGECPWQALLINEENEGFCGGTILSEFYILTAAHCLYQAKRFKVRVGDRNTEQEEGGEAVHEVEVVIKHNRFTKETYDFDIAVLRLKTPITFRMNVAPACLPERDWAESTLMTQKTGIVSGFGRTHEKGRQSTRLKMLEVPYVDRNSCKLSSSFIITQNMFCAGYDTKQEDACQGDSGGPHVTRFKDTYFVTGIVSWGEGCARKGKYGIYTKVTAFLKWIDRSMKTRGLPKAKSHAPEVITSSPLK
Chain of FXa (P00742 41-179 partner): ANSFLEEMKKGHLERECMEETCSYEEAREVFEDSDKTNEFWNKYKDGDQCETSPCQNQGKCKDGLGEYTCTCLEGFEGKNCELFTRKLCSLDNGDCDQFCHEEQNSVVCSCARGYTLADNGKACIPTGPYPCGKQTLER

Compound: Nc1nccc2c(NCc3ccc(OCC4CCn5ccnc5C4)nc3)cccc12 (single isomer, unassigned) [Example 1029, (R*)-N5-((6-((5,6,7,8-tetrahydroimidazo[1,2-a]pyridin-7-yl)methoxy)pyridin-3-yl)methyl)isoquinoline-1,5-diamine]
pIC50 (FXa): 4.40 to 5.00
pIC50 (Human Factor XIIa): 6.52 to 7.00
half-life [1]: 6.18 h
bioavailability [1]: 9.7%
pIC50 (Plasma Kallikrein): 4.40 to 5.00
pIC50 (KLK1): 5.00 to 5.52
pIC50 (Thrombin): 4.40 to 5.00

Compound: CN1CCC(Oc2ccc(CNc3ccc4c(N)nccc4c3)cn2)CC1 [Example 1001, 6-N-({6-[(1-methylpiperidin-4-yl)oxy]pyridin-3-yl}methyl)isoquinoline-1,6-diamine]
pIC50 (FXa): 5.52 to 6.00
pIC50 (Human Factor XIIa): 6.00 to 6.52
pIC50 (Plasmin): < 4.40
pIC50 (Trypsin): 4.40 to 5.00
pIC50 (Plasma Kallikrein): 5.52 to 6.00
pIC50 (Thrombin): 5.52 to 6.00

Compound: CN1CCC(Oc2ccc(CNc3cccc4c(N)nccc34)cc2)CC1 [Example 1002, 5-N-({4-[(1-methylpiperidin-4-yl)oxy]phenyl}methyl)isoquinoline-1,5-diamine]
pIC50 (FXa): 4.40 to 5.00
pIC50 (Human Factor XIIa): 6.52 to 7.00
pIC50 (Plasmin): < 4.40
pIC50 (Trypsin): < 4.40
pIC50 (Thrombin): < 4.40

Compound: CC(C)N1CC2(CN(Cc3ccc(CNc4ccc5c(N)nccc5c4)c(F)c3)C2)C1 [Example 1037, 6-N-{[2-fluoro-4-({6-isopropyl-2,6-diazaspiro[3.3]heptan-2-yl}methyl)phenyl]methyl}isoquinoline-1,6-diamine]
pIC50 (FXa): < 4.40
pIC50 (Human Factor XIIa): 6.00 to 6.52
pIC50 (Plasma Kallikrein): 4.40 to 5.00
pIC50 (FXIa): < 4.40
pIC50 (KLK1): 5.00 to 5.52
pIC50 (Thrombin): 4.40 to 5.00

Compound: CN1CCC(CNc2ccc(CNc3ccnc4[nH]c(Cl)cc34)cn2)CC1 [Example 1243, 2-chloro-N-((6-(((1-methylpiperidin-4-yl)methyl)amino)pyridin-3-yl)methyl)-1H-pyrrolo [2,3-b]pyridin-4-amine]
pIC50 (FXa): 4.40 to 5.00
pIC50 (Human Factor XIIa): 7.00 to 8.00
half-life [1]: 8.76 h
bioavailability [1]: 4.9%
pIC50 (Plasma Kallikrein): < 4.40
pIC50 (KLK1): 4.40 to 5.00
pIC50 (Thrombin): < 4.40

Compound: Nc1nccc2c(NCc3ccc(N4CCn5c(nnc5C(F)F)C4)nc3)cccc12 [Example 1274, N5-((6-(3-(Difluoromethyl)-5,6-dihydro-[1,2,4]triazolo[4,3-a]pyrazin-7(8H)-yl)pyridin-3-yl)methyl)isoquinoline-1,5-diamine]
pIC50 (FXa): < 4.40
pIC50 (Human Factor XIIa): 6.00 to 6.52
half-life [1]: 2.52 h
bioavailability [1]: 32.1%
pIC50 (Plasma Kallikrein): < 4.40
pIC50 (KLK1): 5.52 to 6.00
pIC50 (Thrombin): 4.40 to 5.00

Compound: FC(F)c1nnc2n1CCN(c1ccc(CNc3ccnc4[nH]c(Cl)cc34)cn1)C2 [Example 1277, 2-chloro-N-((6-(3-(difluoromethyl)-5,6-dihydro-[1,2,4]triazolo[4,3-a]pyrazin-7(8H)-yl)pyridin-3-yl)methyl)-1H-pyrrolo[2,3-b]pyridin-4-amine]
pIC50 (FXa): < 4.40
pIC50 (Human Factor XIIa): 6.00 to 6.52
half-life [1]: 1.35 h
bioavailability [1]: 25%
pIC50 (Plasma Kallikrein): < 4.40
pIC50 (KLK1): 4.40 to 5.00
pIC50 (Thrombin): 4.40 to 5.00

Compound: Cc1cc(N2CCn3c(nnc3C(F)(F)F)C2)ncc1CNc1cccc2c(N)nccc12 [Example 1282, N5-((4-Methyl-6-(3-(trifluoromethyl)-5,6-dihydro-[1,2,4]triazolo[4,3-a]pyrazin-7(8H)-yl)pyridin-3-yl)methyl)isoquinoline-1,5-diamine]
pIC50 (FXa): < 5.40
pIC50 (Human Factor XIIa): 7.00 to 8.00
half-life [1]: 2.34 h
bioavailability [1]: 53.2%
pIC50 (Plasma Kallikrein): < 4.40
pIC50 (KLK1): 5.00 to 5.52

The next lines start with the values.

pIC50 (Human Factor XIIa): 7.00 to 8.00
half-life [1]: 4.04 h
bioavailability [1]: 79.4%
pIC50 (KLK1): < 5.40
Compound: Cc1cc(N2CCn3c(nnc3C(F)(F)F)C2C)ncc1CNc1cccc2c(N)nccc12 (single isomer, unassigned) [Example 1305, (S*)-N5-((4-methyl-6-(8-methyl-3-(trifluoromethyl)-5,6-dihydro-[1,2,4]triazolo[4,3-a]pyrazin-7(8H)-yl)pyridin-3-yl)methyl)isoquinoline-1,5-diamine]

pIC50 (FXa): 4.40 to 5.00
pIC50 (Human Factor XIIa): 6.52 to 7.00
pIC50 (Plasmin): < 4.40
pIC50 (Trypsin): < 4.40
pIC50 (Plasma Kallikrein): 4.40 to 5.00
pIC50 (FXIa): < 4.40
pIC50 (KLK1): 5.00 to 5.52
pIC50 (Thrombin): 4.40 to 5.00
Compound: Nc1ncc(Cl)c2cc(NCc3ccnc(OCC4CCn5ccnc5C4)c3)ccc12 (single isomer, unassigned) [Example 4438, (S*)-4-chloro-N6-((2-((5,6,7,8-tetrahydroimidazo[1,2-a]pyridin-7-yl)methoxy)pyridin-4-yl)methyl)isoquinoline-1,6-diamine]

pIC50 (FXa): 4.40 to 5.00
pIC50 (Human Factor XIIa): 6.52 to 7.00
half-life [1]: 4.39 h
bioavailability [1]: 15.8%
pIC50 (Plasma Kallikrein): 4.40 to 5.00
pIC50 (FXIa): < 4.40
pIC50 (Thrombin): < 4.40
Compound: CN1CCC(OCc2ccc(CNc3cccc4c(N)nccc34)cc2)CC1 [Example 2186, N5-(4-(((1-methylpiperidin-4-yl)oxy)methyl)benzyl)isoquinoline-1,5-diamine]

pIC50 (FXa): 4.40 to 5.00
pIC50 (Human Factor XIIa): 6.52 to 7.00
half-life [1]: 9.02 h
bioavailability [1]: 22.8%
pIC50 (Plasma Kallikrein): 4.40 to 5.00
pIC50 (FXIa): < 4.40
pIC50 (Thrombin): < 4.40
Compound: CN1CCC(OCc2ccc(CNc3ccc4c(N)nccc4c3)c(F)c2)CC1 [Example 2191, N6-(2-fluoro-4-(((1-methylpiperidin-4-yl)oxy)methyl)benzyl)isoquinoline-1,6-diamine]

pIC50 (FXa): < 4.70
pIC50 (Human Factor XIIa): 7.00 to 8.00
bioavailability ([1]; 5 mg/kg): 26.6%
half-life [1]: 6.87 h
pIC50 (Plasma Kallikrein): < 4.70
pIC50 (FXIa): < 4.70
pIC50 (Thrombin): < 4.70
Compound: CN1CCC(OCc2ccc(CNc3cccc4c(N)nccc34)c(F)c2)CC1 [Example 2197, N5-(2-fluoro-4-(((1-methylpiperidin-4-yl)oxy)methyl)benzyl)isoquinoline-1,5-diamine]

pIC50 (FXa): 5.00 to 5.52
pIC50 (Human Factor XIIa): 6.00 to 6.52
pIC50 (Plasmin): < 4.40
pIC50 (Plasma Kallikrein): 4.40 to 5.00
pIC50 (KLK1): 4.40 to 5.00
pIC50 (Thrombin): 5.52 to 6.00
Compound: CN1CCC(Oc2cc(CNc3ccc4c(N)nccc4c3)ccn2)CC1 [Example 4259, N6-((2-((1-methylpiperidin-4-yl)oxy)pyridin-4-yl)methyl)isoquinoline-1,6-diamine]

pIC50 (FXa): < 4.70
pIC50 (Human Factor XIIa): 6.52 to 7.00
half-life [1]: 9.98 h
bioavailability [1]: 13.6%
pIC50 (Plasma Kallikrein): < 4.70
pIC50 (FXIa): < 4.70
pIC50 (Thrombin): < 4.70
Compound: CN1CCC(COc2cc(CNc3cccc4c(N)nccc34)ccn2)CC1 [Example 4260, N5-((2-((1-methylpiperidin-4-yl)methoxy)pyridin-4-yl)methyl)isoquinoline-1,5-diamine]

pIC50 (Human Factor XIIa): 6.52 to 7.00
half-life [1]: 10.1 h
bioavailability [1]: 8.3%
pIC50 (Plasma Kallikrein): < 5.40
Compound: CC(C)N1CCC(COc2cc(CNc3cccc4c(N)nccc34)ccn2)CC1 [Example 4299, N5-[[2-[(1-isopropyl-4-piperidyl)methoxy]-4-pyridyl]methyl]isoquinoline-1,5-diamine]

pIC50 (Human Factor XIIa): 6.00 to 6.52
half-life [1]: 2.19 h
bioavailability [1]: 8.5%
pIC50 (Plasma Kallikrein): < 5.40
Compound: Cn1ccc(COc2cc(CNc3cccc4c(N)nccc34)ccn2)cc1=O [Example 4301, 4-[[4-[[(1-Amino-5-isoquinolyl)amino]methyl]-2-pyridyl]oxymethyl]-1-methyl-pyridin-2-one]

pIC50 (FXa): < 4.40
pIC50 (Plasmin): < 4.40
pIC50 (Trypsin): < 4.40
pIC50 (Plasma Kallikrein): < 4.00
pIC50 (FXIa): < 4.40
pIC50 (KLK1): 5.52 to 6.00
pIC50 (Thrombin): < 4.40
Compound: CN1CCC(COc2cc(CNc3cccc4[nH]nc(Cl)c34)ccn2)CC1 [Example 4454, 3-chloro-N-((2-((1-methylpiperidin-4-yl)methoxy)pyridin-4-yl)methyl)-1H-indazol-4-amine]
